Experimental findings from patent US9120795B2, “Crystalline form of a β-lactamase inhibitor” (Cubist Pharmaceuticals, Inc., priority 2013, dated 2015) are described below.

The subject of this test is Panel of Isogenic and Clinical Strains Expressing β-Lactamases. The test can be described thus: Standard BLI potentiation MIC assay, whole panel. Format: cell-based. The procedure: The experimental protocol was performed according to Clinical and Laboratory Standards Institute (CLSI) guidelines with modifications as described below (CLSI guidelines can be derived from the CLSI document M07-A9 published in January 2012: “Methods for Dilution Antimicrobial Susceptibility Tests for Bacteria That Grow Aerobically; Approved Standard-Ninth Edition”).
To prepare for MIC testing, frozen glycerol stocks of clinical isolates (Klebsiella pneumoniae, Eschericia coli, Enterobacter spp, Citrobacter spp, or Pseudomonas aeruginosa) were used to streak for isolated colonies on rich, non-selective, tryptic soy agar containing 5% sheep's blood (TSAB). Frozen glycerol stocks of laboratory engineered, isogenic E. coli strains, which contain cloned β-lactamase expressing plasmids were used to streak for isolated colonies on rich, selective LB agar supplemented with 25 μg/mL tetracycline to maintain the plasmid. All strains were incubated at 37° C. for 18-24 hrs. […]
Plates were incubated for 18-20 hours at 37° C. with aeration (200 rpm). Following incubation, growth was confirmed visually placing plates over a viewing apparatus (stand with a mirror underneath) and then OD600 was measured using a SpectraMax 340PC384 plate reader (Molecular Devices, Sunnyvale, Calif.). Growth was defined as turbidity that could be detected with the naked eye or achieving minimum OD600 of 0.1. […]

On to `O=C1N2C[C@@H](CC[C@H]2c2nnco2)N1OS(=O)(=O)[O-].[Na+]` [Hydrate 1, sodium (2S,5R)-2-(1,3,4-oxadiazol-2-yl)-7-oxo-1,6-diazabicyclo[3.2.1]octan-6-yl sulfate], for which the MIC50 was 1 to 2 µg/mL and the MIC90 was 1 to 2 µg/mL.
